Test results from patent publication US5528046A, “Method and device for determining the location and number of fluorescent molecules” (Hamamatsu Photonics K.K., priority 1992, dated 1996).

Tests used:
[1] = molecular target: streptavidin (SA), tetramer (Streptomyces avidinii, UniProt P22629); conditions: cited from earlier work
bovine serum albumin = bovine serum albumin (Bos taurus, UniProt P02769); assay: Affinity of bovine serum albumin for FLB (FLB absorption spectrum); type: binding; conditions: causes no changes to FLB spectrum
From the text: Foster and Konig report that is has been found based on changes of absorption spectra of some organic dye molecules (fluorescent molecules) containing a fluorescent substrate in water that the organic dye molecules form dimers at high concentration (10^-3 -10^-1 M). Koizumi and Mataga report a change of absorption spectrum in an aqueous solution containing fluorescent molecules in the presence of electrolytic polymers. Based on these studies, it is considered that changes of the spectra are caused by the cohesive effect of the fluorescent molecules to the polymers. Considering these past studies and the bonding between SA and B due to their high affinity, it is considered that similarly sufficient local adhesion effects of FLB to SA can be present. This is further optical evidence of the interaction between SA and FLB. For example, bovine serum albumin, which has no affinity with FLB, causes no changes to FLB spectrum.

Chain of streptavidin (SA), tetramer (P22629 25-183): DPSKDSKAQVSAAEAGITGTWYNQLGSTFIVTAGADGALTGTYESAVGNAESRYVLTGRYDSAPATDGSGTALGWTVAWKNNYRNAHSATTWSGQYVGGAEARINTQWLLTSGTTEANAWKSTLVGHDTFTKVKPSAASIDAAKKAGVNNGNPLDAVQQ
Chain of bovine serum albumin (P02769 25-607): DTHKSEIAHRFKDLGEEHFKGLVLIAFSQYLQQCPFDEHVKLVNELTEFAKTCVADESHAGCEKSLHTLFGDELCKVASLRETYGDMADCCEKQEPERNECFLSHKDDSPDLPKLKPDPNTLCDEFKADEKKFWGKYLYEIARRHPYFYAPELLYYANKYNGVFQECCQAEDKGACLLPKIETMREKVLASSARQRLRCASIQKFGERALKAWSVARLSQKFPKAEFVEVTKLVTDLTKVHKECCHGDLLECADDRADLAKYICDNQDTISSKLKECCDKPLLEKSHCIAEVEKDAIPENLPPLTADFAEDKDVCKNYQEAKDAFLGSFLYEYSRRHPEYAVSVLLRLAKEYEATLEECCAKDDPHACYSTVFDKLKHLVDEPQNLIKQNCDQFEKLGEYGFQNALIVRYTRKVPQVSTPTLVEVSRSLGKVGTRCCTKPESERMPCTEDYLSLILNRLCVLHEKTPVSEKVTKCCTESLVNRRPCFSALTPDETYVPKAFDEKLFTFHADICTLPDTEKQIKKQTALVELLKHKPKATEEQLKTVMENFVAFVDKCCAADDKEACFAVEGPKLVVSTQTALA

Row | Compound | lifetime of the SA/B complex [1] | affinity with FLB (bovine serum albumin)
1 | O=C(O)CCCC[C@@H]1SC[C@@H]2NC(=O)N[C@@H]21 [B, biotin] | about 2.9 days | –
2 | O=C(CCCCCNC(=O)CCCC[C@@H]1SC[C@@H]2NC(=O)N[C@@H]21)NCCCCCNC(=S)Nc1ccc2c(c1)C(=O)OC21c2ccc(O)cc2Oc2cc(O)ccc21 [FLB, fluorescein biotin] | – | no affinity
